Assay results published in ChEMBL document CHEMBL4373715, “Discovery and Biological Evaluations of Halogenated 2,4-Diphenyl Indeno[1,2-b]pyridinol Derivatives as Potent Topoisomerase IIα-Targeted Chemotherapeutic Agents for Breast Cancer” (J Med Chem, 2019).

Experiments:
[1] = tested on: HCT-15; test: Antiproliferative activity against human HCT15 cells measured after 72 hrs by EZ-Cytox assay; format: functional, cell-based; details: HCT-15, 72 h
[2] = tested on: T47D; test: Antiproliferative activity against human T47D cells measured after 72 hrs by EZ-Cytox assay; format: functional, cell-based
[3] = tested on: DU-145; test: Antiproliferative activity against human DU145 cells measured after 72 hrs by EZ-Cytox assay; format: functional, cell-based; details: DU-145, 72 h
[4] = tested on: HeLa; test: Antiproliferative activity against human HeLa cells measured after 72 hrs by EZ-Cytox assay; format: functional, cell-based
[5] = target: T1, DNA topoisomerase 1 (Homo sapiens) (UniProt P11387); test: Inhibition of recombinant human topoisomerase 1-mediated relaxation of supercoiled pBR322 DNA at 100 uM measured after 30 mins by ethidium bromide staining based agarose gel electrophoresis relative to control
T1 sequence (whole entry): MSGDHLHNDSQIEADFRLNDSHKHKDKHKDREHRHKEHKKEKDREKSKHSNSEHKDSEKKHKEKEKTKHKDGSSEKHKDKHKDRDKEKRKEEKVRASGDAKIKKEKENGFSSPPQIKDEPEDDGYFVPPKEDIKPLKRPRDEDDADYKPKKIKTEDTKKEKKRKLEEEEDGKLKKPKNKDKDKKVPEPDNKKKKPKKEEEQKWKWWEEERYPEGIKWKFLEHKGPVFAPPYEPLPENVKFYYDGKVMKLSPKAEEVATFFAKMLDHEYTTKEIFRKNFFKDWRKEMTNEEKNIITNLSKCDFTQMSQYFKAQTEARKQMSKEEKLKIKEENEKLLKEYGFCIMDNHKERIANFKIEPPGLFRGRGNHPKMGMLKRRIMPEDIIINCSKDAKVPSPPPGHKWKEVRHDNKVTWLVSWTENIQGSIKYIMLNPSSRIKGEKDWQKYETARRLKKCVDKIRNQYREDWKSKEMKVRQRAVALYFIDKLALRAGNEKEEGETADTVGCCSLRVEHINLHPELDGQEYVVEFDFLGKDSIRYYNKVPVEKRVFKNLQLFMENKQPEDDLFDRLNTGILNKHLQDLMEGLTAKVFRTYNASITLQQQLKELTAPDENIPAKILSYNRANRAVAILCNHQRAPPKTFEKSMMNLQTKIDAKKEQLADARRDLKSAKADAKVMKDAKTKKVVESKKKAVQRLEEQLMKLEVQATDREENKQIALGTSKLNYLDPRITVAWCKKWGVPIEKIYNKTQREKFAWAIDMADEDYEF

[6] = target: DNA topoisomerase 2-alpha (Homo sapiens) (UniProt P11388); test: Inhibition of recombinant human topoisomerase 2alpha-mediated relaxation of supercoiled pBR322 DNA at 100 uM measured after 30 mins by ethidium bromide staining based agarose gel electrophoresis relative to control
Sequence of DNA topoisomerase 2-alpha (Homo sapiens) (P11388 whole entry): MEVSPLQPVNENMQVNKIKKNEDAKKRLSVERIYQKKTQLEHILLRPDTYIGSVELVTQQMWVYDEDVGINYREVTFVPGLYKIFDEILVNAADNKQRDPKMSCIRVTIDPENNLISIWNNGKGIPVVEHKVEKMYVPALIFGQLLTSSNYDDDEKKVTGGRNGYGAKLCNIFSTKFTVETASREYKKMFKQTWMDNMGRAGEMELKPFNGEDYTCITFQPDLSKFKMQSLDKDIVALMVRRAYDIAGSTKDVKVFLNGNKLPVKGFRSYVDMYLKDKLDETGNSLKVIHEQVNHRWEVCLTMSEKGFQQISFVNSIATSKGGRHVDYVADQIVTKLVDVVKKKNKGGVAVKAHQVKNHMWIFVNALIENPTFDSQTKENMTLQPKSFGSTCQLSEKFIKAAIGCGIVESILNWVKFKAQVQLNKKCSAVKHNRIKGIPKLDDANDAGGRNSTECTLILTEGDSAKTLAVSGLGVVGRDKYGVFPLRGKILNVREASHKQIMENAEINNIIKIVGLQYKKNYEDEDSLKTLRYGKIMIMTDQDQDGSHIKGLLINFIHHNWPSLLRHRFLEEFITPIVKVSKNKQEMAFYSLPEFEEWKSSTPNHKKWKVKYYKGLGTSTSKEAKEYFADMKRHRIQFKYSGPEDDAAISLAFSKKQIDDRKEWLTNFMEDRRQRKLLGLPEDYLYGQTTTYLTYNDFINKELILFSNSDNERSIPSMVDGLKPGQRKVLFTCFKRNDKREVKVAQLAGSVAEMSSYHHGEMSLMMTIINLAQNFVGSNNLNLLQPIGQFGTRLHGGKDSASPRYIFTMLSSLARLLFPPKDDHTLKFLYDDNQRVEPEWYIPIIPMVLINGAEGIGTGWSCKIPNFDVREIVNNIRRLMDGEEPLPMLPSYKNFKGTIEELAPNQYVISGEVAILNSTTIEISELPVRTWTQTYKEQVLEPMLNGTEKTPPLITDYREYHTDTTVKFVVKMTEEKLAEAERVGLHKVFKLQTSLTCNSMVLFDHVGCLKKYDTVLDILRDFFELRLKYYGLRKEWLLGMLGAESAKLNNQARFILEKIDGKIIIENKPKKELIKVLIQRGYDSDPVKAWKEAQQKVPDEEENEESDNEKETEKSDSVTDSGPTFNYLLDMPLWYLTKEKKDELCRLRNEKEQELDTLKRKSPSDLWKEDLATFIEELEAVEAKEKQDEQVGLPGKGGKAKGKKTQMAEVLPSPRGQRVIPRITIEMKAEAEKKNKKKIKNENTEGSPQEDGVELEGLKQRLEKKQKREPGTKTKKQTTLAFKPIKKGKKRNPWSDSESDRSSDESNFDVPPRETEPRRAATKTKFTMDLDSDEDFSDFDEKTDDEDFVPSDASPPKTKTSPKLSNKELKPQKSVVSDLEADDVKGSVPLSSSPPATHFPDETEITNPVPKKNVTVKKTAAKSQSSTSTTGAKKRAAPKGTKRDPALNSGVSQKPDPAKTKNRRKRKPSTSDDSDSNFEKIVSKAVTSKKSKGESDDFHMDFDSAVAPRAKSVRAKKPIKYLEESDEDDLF

[7] = target: DNA topoisomerase 2-alpha (Homo sapiens) (UniProt P11388); test: Inhibition of recombinant human topoisomerase 2alpha-mediated relaxation of supercoiled pBR322 DNA at 20 uM measured after 30 mins by ethidium bromide staining based agarose gel electrophoresis relative to control

SMILES | IC50 [1] | IC50 [2] | IC50 [3] | IC50 [4] | inhibition [5] | inhibition [6] | inhibition [7]
Oc1ccc2c(c1)-c1nc(-c3ccccc3Cl)cc(-c3ccccc3O)c1C2 | 4940 nM | 2840 nM | 770 nM | 6710 nM | 0% | 76.8% | 5.8%
Oc1cccc(-c2cc(-c3ccc(C(F)(F)F)cc3)nc3c2Cc2cc(O)ccc2-3)c1 | 6820 nM | 8900 nM | 1590 nM | 11400 nM | 2.8% | 100% | 14.9%
Oc1ccccc1-c1cc(-c2ccc(Cl)cc2)c2c(n1)-c1cccc(O)c1C2 | > 50000 nM | > 50000 nM | 12800 nM | > 50000 nM | 8.4% | 71.6% | 1.5%
Oc1cccc(-c2cc(-c3cccc(Cl)c3)c3c(n2)-c2ccc(O)cc2C3)c1 | 25300 nM | 22600 nM | 6290 nM | 7740 nM | 3.7% | 83% | 27%
Oc1ccc(-c2cc(-c3ccc(Cl)cc3)c3c(n2)-c2ccc(O)cc2C3)cc1 | 18500 nM | 1510 nM | 1430 nM | 6830 nM | 7.7% | 98.1% | 8.9%
Oc1ccccc1-c1cc(-c2cccc(F)c2)nc2c1Cc1c(O)cccc1-2 | 2350 nM | 1250 nM | 3940 nM | 3920 nM | 0% | 80.7% | 4.8%
Oc1cccc(-c2cc(-c3ccc(Cl)cc3)nc3c2Cc2cc(O)ccc2-3)c1 | 850 nM | 1500 nM | 1280 nM | 1090 nM | 0% | 95% | 11.2%
Oc1ccc(-c2cc(-c3cccc(Cl)c3)c3c(n2)-c2cc(O)ccc2C3)cc1 | 7590 nM | 2760 nM | 2100 nM | 8060 nM | 8.8% | 73.6% | 1.2%
Oc1cccc(-c2cc(-c3cccc(Cl)c3)nc3c2Cc2ccc(O)cc2-3)c1 | 840 nM | 1370 nM | 3280 nM | 5440 nM | 1.5% | 90.5% | 14.3%
Oc1cccc(-c2cc(-c3ccccc3Cl)nc3c2Cc2ccc(O)cc2-3)c1 | 3040 nM | 550 nM | 570 nM | > 50000 nM | 3.9% | 88.7% | 38.3%
Oc1cccc(-c2cc(-c3ccc(Cl)cc3)nc3c2Cc2ccc(O)cc2-3)c1 | 860 nM | 3500 nM | 4430 nM | 1730 nM | 16.7% | 87.8% | 51.9%
Oc1ccc2c(c1)Cc1c(-c3ccccc3O)cc(-c3cccc(Cl)c3)nc1-2 | 2760 nM | 2770 nM | 360 nM | 2690 nM | 14.6% | 80.8% | 2.6%
Oc1cccc(-c2cc(-c3cccc(C(F)(F)F)c3)nc3c2Cc2cccc(O)c2-3)c1 | 14200 nM | 3630 nM | 2770 nM | > 50000 nM | 0.2% | 71.6% | 0.7%
Oc1ccc(-c2cc(-c3ccccc3Cl)c3c(n2)-c2cc(O)ccc2C3)cc1 | 2910 nM | 1640 nM | 4650 nM | 6500 nM | 4% | 74.8% | 2%
Oc1ccc(-c2cc(-c3ccccc3)c3c(n2)-c2ccc(O)cc2C3)cc1 | 1270 nM | 730 nM | 710 nM | 2670 nM | 8.8% | 42.8% | 8.3%
Oc1ccc(-c2cc(-c3cccc(Cl)c3)c3c(n2)-c2ccc(O)cc2C3)cc1 | 5690 nM | 1860 nM | 2250 nM | 5940 nM | 8.8% | 73.9% | 3.3%
Oc1cccc(-c2cc(-c3ccc(C(F)(F)F)cc3)nc3c2Cc2ccc(O)cc2-3)c1 | 2950 nM | 1800 nM | 3180 nM | 3630 nM | 0% | 100% | 5.1%

SMILES | IC50 [1] | IC50 [2] | IC50 [3] | IC50 [4] | inhibition [5] | inhibition [6] | inhibition [7]
Oc1ccc2c(c1)-c1nc(-c3ccccc3O)cc(-c3cccc(Cl)c3)c1C2 | 29800 nM | 7690 nM | 37100 nM | 20000 nM | 1.9% | 67.2% | 4%
Oc1ccccc1-c1cc(-c2ccccc2Cl)nc2c1Cc1cccc(O)c1-2 | 3170 nM | 870 nM | 290 nM | 1120 nM | 13.4% | 80.9% | 3.7%
Oc1cccc(-c2cc(-c3ccccc3Cl)nc3c2Cc2cccc(O)c2-3)c1 | 3820 nM | 120 nM | 240 nM | 5250 nM | 6.3% | 89.6% | 10.9%
Oc1ccccc1-c1cc(-c2cccc(Cl)c2)c2c(n1)-c1cccc(O)c1C2 | 2450 nM | 12000 nM | 6010 nM | 20500 nM | 0% | 75.4% | 1.5%
Oc1ccc(-c2cc(-c3cccc(C(F)(F)F)c3)nc3c2Cc2ccc(O)cc2-3)cc1 | 2770 nM | 4690 nM | 2150 nM | 3060 nM | 8.5% | 87.1% | 11.1%
Oc1ccc(-c2cc(-c3ccc(Cl)cc3)nc3c2Cc2c(O)cccc2-3)cc1 | 3000 nM | 1150 nM | 1880 nM | 4080 nM | 6.7% | 59.9% | 0%
Oc1cccc(-c2cc(-c3cccc(Cl)c3)nc3c2Cc2cccc(O)c2-3)c1 | 2490 nM | 1630 nM | 3480 nM | 4590 nM | 16.9% | 88.6% | 3.4%
Oc1ccccc1-c1cc(-c2ccc(C(F)(F)F)cc2)nc2c1Cc1c(O)cccc1-2 | 4540 nM | 1330 nM | 3460 nM | 6140 nM | 0% | 98.9% | 2.4%
Oc1cccc(-c2cc(-c3ccccc3Cl)nc3c2Cc2cc(O)ccc2-3)c1 | 1.33 nM | 780 nM | 810 nM | 910 nM | 5.6% | 100% | 32.3%
Oc1ccc(-c2cc(-c3ccc(Cl)cc3)c3c(n2)-c2c(O)cccc2C3)cc1 | > 50000 nM | > 50000 nM | > 50000 nM | > 50000 nM | 0% | 96.8% | 9.3%
Oc1ccccc1-c1cc(-c2cccc(Cl)c2)nc2c1Cc1cccc(O)c1-2 | 1310 nM | 960 nM | 220 nM | 3620 nM | 13.1% | 80% | 3.2%
Oc1ccc2c(c1)Cc1c(-c3ccccc3O)cc(-c3ccccc3Cl)nc1-2 | 2340 nM | 2860 nM | 1510 nM | 840 nM | 11.7% | 70.5% | 8.2%
Oc1ccc(-c2cc(-c3ccccc3)c3c(n2)-c2c(O)cccc2C3)cc1 | > 50000 nM | 11600 nM | 660 nM | 2060 nM | 1.1% | 3.7% | –
Oc1cccc(-c2cc(-c3ccccc3F)nc3c2Cc2c(O)cccc2-3)c1 | 4980 nM | 2710 nM | 2030 nM | 6750 nM | 9.7% | 22.4% | –
Oc1ccc(-c2cc(-c3ccccc3)nc3c2Cc2ccc(O)cc2-3)cc1 | > 50000 nM | 2990 nM | 1380 nM | > 50000 nM | 6% | 2.4% | –
Oc1cccc(-c2cc(-c3ccccc3F)nc3c2Cc2cccc(O)c2-3)c1 | 8330 nM | 830 nM | 1880 nM | 12100 nM | 4% | 8.7% | –
